# Experiments:
# hROMK (human Kir1.1) = hROMK (human Kir1.1) (Homo sapiens (Human), UniProt P48048); assay: Thallium Flux Assay; assay type: cell-based; conditions: CHO T-Rex hROMK stable cell line, 10-point concentration response; read-out: hROMK Th+ Flux IC50
# Method in brief: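 CHO T-Rex cells, doxycycline-induced (0.5 μg/ml) one day before, FluxOR dye-loaded; compounds 30 min, then Tl+ stimulus (final 3 mM Tl2SO4, 0.15 mM K2SO4) with ouabain in chloride-free buffer. Fluorescence 488/525 nm for 90 s; IC50 from 10-point curve; DMSO 0.5 or 1%.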
# hERG = hERG (Homo sapiens (Human), UniProt Q12809); assay: hERG Manual Patch Clamp Assay; assay type: cell-based; conditions: for inhibition at 1 µM: pH 7.4, 1 μM, read-out: hERG EP IC50 (% Inhibition at 1 μM)
# hERG, sequence (Q12809 whole entry): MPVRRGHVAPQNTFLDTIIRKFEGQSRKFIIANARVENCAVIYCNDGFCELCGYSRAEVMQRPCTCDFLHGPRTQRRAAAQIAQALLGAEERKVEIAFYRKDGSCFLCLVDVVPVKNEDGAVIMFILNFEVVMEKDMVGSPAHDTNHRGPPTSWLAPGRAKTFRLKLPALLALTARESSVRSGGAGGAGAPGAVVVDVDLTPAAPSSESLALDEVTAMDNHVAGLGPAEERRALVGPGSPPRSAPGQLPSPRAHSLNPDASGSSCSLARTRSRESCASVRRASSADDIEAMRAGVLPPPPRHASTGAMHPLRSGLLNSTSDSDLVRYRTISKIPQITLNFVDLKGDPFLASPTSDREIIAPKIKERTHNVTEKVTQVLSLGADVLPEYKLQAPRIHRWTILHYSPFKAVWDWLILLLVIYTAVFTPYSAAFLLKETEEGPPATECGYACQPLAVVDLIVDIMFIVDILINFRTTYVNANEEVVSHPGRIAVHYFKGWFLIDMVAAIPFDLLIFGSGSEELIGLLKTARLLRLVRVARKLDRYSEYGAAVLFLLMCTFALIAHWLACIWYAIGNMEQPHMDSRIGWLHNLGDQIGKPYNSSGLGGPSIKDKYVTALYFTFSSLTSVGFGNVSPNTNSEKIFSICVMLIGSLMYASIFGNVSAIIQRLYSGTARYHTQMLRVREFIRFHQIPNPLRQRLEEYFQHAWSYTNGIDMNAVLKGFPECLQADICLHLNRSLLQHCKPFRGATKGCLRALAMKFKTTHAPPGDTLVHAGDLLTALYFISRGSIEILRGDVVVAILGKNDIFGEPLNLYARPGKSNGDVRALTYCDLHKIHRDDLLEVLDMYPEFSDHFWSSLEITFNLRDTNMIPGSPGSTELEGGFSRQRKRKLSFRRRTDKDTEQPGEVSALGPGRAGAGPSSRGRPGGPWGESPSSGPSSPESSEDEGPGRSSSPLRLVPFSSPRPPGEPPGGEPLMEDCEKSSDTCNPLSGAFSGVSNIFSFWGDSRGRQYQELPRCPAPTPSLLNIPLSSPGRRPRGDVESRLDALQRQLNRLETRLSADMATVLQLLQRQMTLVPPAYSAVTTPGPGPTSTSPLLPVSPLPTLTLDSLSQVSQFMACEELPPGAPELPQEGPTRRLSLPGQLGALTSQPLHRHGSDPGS
# Protocol: hERG Manual Patch Clamp Assay
# hERG electrophysiology assay: The experimental compounds were assessed for hERG activity on HEK 293 cells stably expressing hERG channels using patch clamp technique. Coverslips plated with hERG expressing cells were placed in the experimental chamber and were perfused with a solution composed of (in mM): 140 NaCl, 4 KCl, 1.8 CaCl2, 1 MgCl2, 10 Glucose, 10 HEPES (pH 7.4, NaOH) at room temperature. Borosilicate patch pipettes had tip resistances of 2-4 Mohms when filled with an internal solution containing: 130 KCl, 1 MgCl2, 1 CaCl2, 10 EGTA, 10 HEPES, 5 ATP-K2 (pH 7.2, KOH). The cells were clamped at −80 mV in whole cell configuration using an Axopatch 200B (Axon instruments, Union City, Calif.) patch clamp amplifier controlled by pClamp (Axon instruments) software. Upon formation of a gigaseal, the following voltage protocol was repeatedly (0.05 Hz) applied to record tail currents: depolarization step from −80 mV to +20 mV for 2 seconds followed by a hyperpolarization step to −65 mV (3 seconds) to elicit tail currents. Compounds were applied after stabilization of tail current. First, tail currents were recorded in presence of extracellular solution alone (control) and subsequently, in extracellular solution containing increasing compound concentrations. Each compound concentration was applied for 2-5 minutes. The percentage inhibition at each concentration was calculated as reduction in peak tail current with respect to the peak tail current recorded in the presence of control solution. Data analysis was performed in a custom made template. The percent inhibitions at different concentrations were plotted to obtain a concentration response curve, which was subsequently fitted with a four parameter equation to calculate hERG IC50 value.
# A lower hERG % Inhibition value indicates less inhibition of the hERG current
# [1] = human, HEK 293 cells stably expressing hERG channels
# hROMK (human Kir1.1), sequence (P48048 whole entry): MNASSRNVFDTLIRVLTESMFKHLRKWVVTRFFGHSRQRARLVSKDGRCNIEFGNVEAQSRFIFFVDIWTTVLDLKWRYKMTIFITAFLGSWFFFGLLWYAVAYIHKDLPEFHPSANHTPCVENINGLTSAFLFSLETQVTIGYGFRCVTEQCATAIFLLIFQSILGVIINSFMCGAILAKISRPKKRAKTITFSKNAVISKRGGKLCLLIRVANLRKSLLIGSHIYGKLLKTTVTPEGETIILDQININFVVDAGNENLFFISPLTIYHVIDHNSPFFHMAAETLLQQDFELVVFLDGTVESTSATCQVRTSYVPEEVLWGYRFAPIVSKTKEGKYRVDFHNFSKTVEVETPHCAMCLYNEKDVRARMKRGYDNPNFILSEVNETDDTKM
IC50 (hROMK (human Kir1.1)) [nM],SMILES,inhibition at 1 µM (hERG; [1]) [%],further results
30,"Cc1c(C(O)CN2CCc3nc(-n4nc(C#N)c5ccccc54)ncc3C2)ccc2c1COC2=O (single isomer, unassigned) [Example 60-I, 1-(6-(2-hydroxy-2-(4-methyl-1-oxo-1,3-dihydroisobenzofuran-5-yl)ethyl)-5,6,7,8-tetrahydropyrido[4,3-d]pyrimidin-2-yl)-1H-indazole-3-carbonitrile]",92,–
28,"Cc1c(C(O)CN2CCc3nc(-n4cc(C#N)c5ccccc54)ncc3C2)ccc2c1COC2=O (single isomer, unassigned) [Example 8-I, 1-(6-(2-hydroxy-2-(4-methyl-1-oxo-1,3-dihydroisobenzofuran-5-yl)ethyl)-5,6,7,8-tetrahydropyrido[4,3-d]pyrimidin-2-yl)-1H-indole-3-carbonitrile]",98,–
180,"Cc1c(C(O)CN2CCc3nc(-n4ncc5c(C#N)cncc54)ncc3C2)ccc2c1COC2=O (single isomer, unassigned) [Example 43-I, 1-(6-(2-hydroxy-2-(4-methyl-1-oxo-1,3-dihydroisobenzofuran-5-yl)ethyl)-5,6,7,8-tetrahydropyrido[4,3-d]pyrimidin-2-yl)-1H-pyrazolo[3,4-c]pyridine-4-carbonitrile]",16,–
120,"Cc1c(C(O)CN2CCc3nc(Nc4ccc(C#N)c(F)c4)ncc3C2)ccc2c1COC2=O (single isomer, unassigned) [Example 28-I, 2-fluoro-4-((6-(2-hydroxy-2-(4-methyl-1-oxo-1,3-dihydroisobenzofuran-5-yl)ethyl)-5,6,7,8-tetrahydropyrido [4,3-d]pyrimidin-2-yl)amino)benzonitrile]",91,–
54,"Cc1c(C(O)CN2CCc3nc(-n4ccc5c(C#N)cccc54)ncc3C2)ccc2c1COC2=O (single isomer, unassigned) [Example 1-I, 1-(6-(2-hydroxy-2-(4-methyl-1-oxo-1,3-dihydroisobenzofuran-5-yl)ethyl)-5,6,7,8-tetrahydropyrido[4,3-d]pyrimidin-2-yl)-1H-indole-4-carbonitrile]",78,–
362,"Cc1c(C(O)CN2CCc3nc(-n4ccnc4)ncc3C2)ccc2c1COC2=O (single isomer, unassigned) [Example 66-I, 5-(2-(2-(1H-imidazol-1-yl)-7,8-dihydro-pyrido[4,3-d]pyrimidin-6(5H)-yl)-1-hydroxyethyl)-4-methylisobenzofuran-1(3H)-one]",6,"inhibition at 3 µM (hERG; human, HEK 293 cells stably expressing hERG channels, pH 7.4, 3 uM, read-out: hERG EP % Inhibition at 3 uM): 14%; inhibition at 10 µM (hERG; human, HEK 293 cells stably expressing hERG channels, pH 7.4, 10 uM, read-out: hERG EP % Inhibition at 10 uM): 30%"
217,"Cc1c(C(O)CN2CCc3nc(Nc4cccnc4)ncc3C2)ccc2c1COC2=O (single isomer, unassigned) [Example 54-I, 5-(1-hydroxy-2-(2-(pyridin-3-ylamino)-7,8-dihydropyrido[4,3-d]pyrimidin-6(5H)-yl)ethyl)-4-methylisobenzofuran-1(3H)-one]",32,–
83,"Cc1c(C(O)CN2CCc3cc(Nc4ccc(C#N)c(F)c4)ccc3C2)ccc2c1COC2=O (single isomer, unassigned) [Example 32-II, 2-fluoro-4-((2-(2-hydroxy-2-(4-methyl-1-oxo-1,3-dihydroisobenzofuran-5-yl)ethyl)-1,2,3,4-tetrahydroisoquinolin-6-yl)amino) benzonitrile]",–,"hERG EP IC50 (% Inhibition at 1 μM) (hERG; 1 μM, HEK 293 cells stably expressing hERG): 97% @1 μM"
50,"Cc1c(C(O)CN2CCc3cc(Nc4ccc(C#N)c(F)c4)ccc3C2)ccc2c1COC2=O (single isomer, unassigned) [Example 32-I, 2-fluoro-4-((2-(2-hydroxy-2-(4-methyl-1-oxo-1,3-dihydroisobenzofuran-5-yl)ethyl)-1,2,3,4-tetrahydroisoquinolin-6-yl)amino) benzonitrile]",100,–
380,"Cc1c(C(O)CN2CCc3nc(-n4ccc5cc(C#N)ccc54)ncc3C2)ccc2c1COC2=O (single isomer, unassigned) [Example 16-I, 1-(6-(2-hydroxy-2-(4-methyl-1-oxo-1,3-dihydroisobenzofuran-5-yl)ethyl)-5,6,7,8-tetrahydropyrido[4,3-d]pyrimidin-2-yl)-1H-indole-5-carbonitrile]",25,–
31,"Cc1c(C(O)CN2CCc3nc(N4CCc5c(C#N)cccc54)ncc3C2)ccc2c1COC2=O (single isomer, unassigned) [Example 65-I, 1-(6-(2-hydroxy-2-(4-methyl-1-oxo-1,3-dihydroisobenzofuran-5-yl)ethyl)-5,6,7,8-tetrahydropyrido[4,3-d]pyrimidin-2-yl)indoline-4-carbonitrile]",56,–
1240,"Cc1c(C(O)CN2CCc3nc(Nc4ccc(-n5cnnn5)cn4)ncc3C2)ccc2c1COC2=O (single isomer, unassigned) [Example 63-I, 5-(2-(2-((5-(1H-tetrazol-1-yl)pyridine-2-yl)amino)-7,8-dihydropyrido[4,3-d]pyrimidin-6(5H)-yl)-1-hydroxyethyl)-4-methylisobenzofuran-1(3H)-one]",–,–
1800,"Cc1c(C(CO)N2CCc3nc(-n4cc(C#N)c5ccccc54)ncc3C2)ccc2c1COC2=O (single isomer, unassigned) [Example 9-II, 1-(6-(2-hydroxy-1-(4-methyl-1-oxo-1,3-dihydroisobenzofuran-5-yl)ethyl)-5,6,7,8-tetrahydropyrido[4,3-d]pyrimidin-2-yl)-1H-indole-3-carbonitrile]",–,–
700,"Cc1c(C(O)CN2CCc3nc(-n4ncc5cc(C#N)ccc54)ncc3C2)ccc2c1COC2=O (single isomer, unassigned) [Example 50, 1-(6-(2-hydroxy-2-(4-methyl-1-oxo-1,3-dihydroisobenzofuran-5-yl)ethyl)-5,6,7,8-tetrahydropyrido[4,3-d]pyrimidin-2-yl)-1H-indazole-5-carbonitrile]",–,–
200,"Cc1c(CCN2CCc3nc(Nc4ccc(C#N)c(F)c4)ncc3C2)ccc2c1COC2=O [Example 27, 2-fluoro-4-((6-(2-(4-methyl-1-oxo-1,3-dihydroisobenzofuran-5-yl)ethyl)-5,6,7,8-tetrahydropyrido[4,3-d]pyrimidin-2-yl)amino) benzonitrile]",–,–
790,"Cc1c(CN2CCc3nc(Nc4ccc5c(c4C)COC5=O)ncc3C2)ccc2c1COC2=O [Example 5, 4-methyl-5-((2-((4-methyl-1-oxo-1,3-dihydroisobenzofuran-5-yl)amino)-7,8-dihydropyrido[4,3-d]pyrimidin-6(5H)-yl)methyl)isobenzofuran-1(3H)-one]",–,–
1500,"Cc1c(CN2CCc3nc(-n4ccc5c(C#N)cccc54)ncc3C2)ccc2c1COC2=O [Example 20, 1-(6-((4-methyl-1-oxo-1,3-dihydro-isobenzofuran-5-yl)methyl)-5,6,7,8-tetrahydropyrido[4,3-d]pyrimidin-2-yl)-1H-indole-4-carbonitrile]",–,–
1000,"Cn1c(=O)oc2ccc(C(O)CN3CCc4nc(-n5ccc6c(C#N)cccc65)ncc4C3)cc21 (single isomer, unassigned) [Example 22-I, 1-(6-(2-hydroxy-2-(3-methyl-2-oxo-2,3-dihydrobenzo[d]oxazol-5-yl)ethyl)-5,6,7,8-tetrahydropyrido[4,3-d]pyrimidin-2-yl)-1H-indole-4-carbonitrile]",–,–
820,"Cc1c(CN2CCc3cc(-n4ccc5c(C#N)cccc54)ccc3C2)ccc2c1COC2=O [Example 24, 1-(2-((4-methyl-1-oxo-1,3-dihydro-isobenzofuran-5-yl)methyl)-1,2,3,4-tetrahydroisoquinolin-6-yl)-1H-indole-4-carbonitrile]",–,–
200,"N#Cc1ccc(Nc2ccc3c(n2)CCN(CCc2ccc4c(c2)COC4=O)C3)cc1F [Example 7, 2-fluoro-4-((6-(2-(1-oxo-1,3-dihydroisobenzofuran-5-yl)ethyl)-5,6,7,8-tetrahydro-1,6-naphthyridin-2-yl)amino)benzonitrile]",–,–
1030,"Cc1c(C(O)CN2CCc3nc(Nc4ccc5oc(=O)n(C)c5c4)ncc3C2)ccc2c1COC2=O (single isomer, unassigned) [Example 62-I, 5-((6-(2-hydroxy-2-(4-methyl-1-oxo-1,3-dihydroisobenzofuran-5-yl)ethyl)-5,6,7,8-tetrahydropyrido[4,3-d]pyrimidin-2-yl)amino)-3-methylbenzo[d] oxazol-2(3H)-one]",–,–

# — patent US10851108B2, “Substituted bicyclic heterocyclic compounds” (BRISTOL-MYERS SQUIBB COMPANY, priority 2016, dated 2020)
